# Source: US9539236B2, “Pharmaceutical composition for preventing or treating cancer” (Medicinal Bioconvergence Research Center, priority 2013, dated 2017)
# Tests used:
# Assay type in all cases: cell-based
# [1] = tested on: lung cancer cell line NCI-H460; assay: MTT assay, cytotoxicity on lung cancer cells (H460); conditions: NCI-H460, serum free RPMI, 0.04 uM, 0.4 uM, 4 uM and 40 uM, 48 hours, FIG. 3
# Experimental: A lung cancer cell line NCI-H460 was cultured in an RPMI medium (HyQ RPMI-1640, Hyclone) containing 10% fetal bovine serum and 1% penicillin/streptomycin for 48 hours, and then transferred to a 96-well plate. After 12 hours, the medium was exchanged with the serum free RPMI medium, and then was treated with the compound of chemical formula 1 with 0.04 uM, 0.4 uM, 4 uM, and 40 uM. After 48 hours, MTT assay was conducted.
# [2] = tested on: WI-26 human diploid fibroblast cell line from embryonic lung tissue; assay: MTT assay, cytotoxicity on normal cell line WI-26; conditions: WI-26 cells, compared with a control, FIG. 4
# Experimental: In order to evaluate cytotoxicity of C11 on a normal cell line, WI-26, which is a human diploid fibroblast cell line from embryonic lung tissue, was treated with C11, and then cell viability was measured by MTT assay and compared with a control.
# [3] = target: T1, AIMP2-DX2 (Homo sapiens, UniProt Q13155); assay: Western blotting of AIMP2-DX2 protein level in H460 cells; conditions: FIG. 2
# T1 construct: the protein was extracted from the cells using a RIPA buffer containing protease; endogenous in cells; host or cells: H460
# T1 sequence (Q13155 1-251 isoform Q13155-2): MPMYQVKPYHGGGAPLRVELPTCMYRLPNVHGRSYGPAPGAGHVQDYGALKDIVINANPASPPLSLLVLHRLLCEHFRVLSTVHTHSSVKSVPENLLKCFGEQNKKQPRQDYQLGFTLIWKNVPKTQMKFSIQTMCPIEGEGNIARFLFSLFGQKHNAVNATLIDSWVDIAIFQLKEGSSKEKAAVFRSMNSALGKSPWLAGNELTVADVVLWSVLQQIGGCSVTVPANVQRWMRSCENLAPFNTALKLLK
# Experimental: (§1) The present inventors conducted western blotting and RT-PCR using AIMP2 antibody and AIMP2-DX2 antibody (purchased from Neomics (Korea)) to verify the effect of the compound of chemical formula 1 on AIMP2-DX2 activity.
# (§2) A western blotting test was conducted to investigate the effect of C11 on the AIMP2-DX2 protein level.
# (§3) H460 cells were treated with the compound, C11, for a predetermined period of time, and the protein was extracted from the cells using a RIPA buffer containing protease. The protein was isolated using 10 to 12% SDS-PAGE, and then immunoblotting was conducted using an ECL system as a specific antibody.
# [4] = tested on: AIMP2; assay: Western blotting of AIMP2 protein expression in H460 cells; conditions: FIG. 2
# Experimental: as §1, §2, §3
# [5] = tested on: AIMP2-DX2 mRNA; assay: RT-PCR of AIMP2-DX2 mRNA level in H460 cells treated with C11; conditions: different concentrations of C11, RT-PCR, FIG. 1
# Experimental: as §1
# H460 cells were treated with C11 with different concentrations, and then total-RNA was isolated according to the protocol of the manufacturer (Qiagen). The cells were collected, and mixed with 350 μl of a lysis buffer, which was then homogenized using a homogenizer or a syringe. After 350 μl of 70% ethanol was added, the lysate was shook above and below several times, and loaded on the column, followed by centrifuge at 13,000 RPM for 15 seconds. The column was washed twice with a washing buffer, and then RNA was eluted with 40 μl of RNase-free DW.
# For reverse transcription, 1 μg of the isolated RNA was used as AIMP2-specific primers (SEQ ID NO: 2 and SEQ ID NO: 3) and DX2-specific primers (SEQ ID NO: 4 and SEQ ID NO: 5). After the reverse transcription, the product was diluted with 3-fold DW, and then 1 μl was used for 30 μl of PCR reaction including 0.5 μl dNTP (each 2.5 mM), 0.5 μl of the AIMP2 specific primer set (SEQ ID NO: 2 and SEQ ID NO: 3) and DX2 specific primers (SEQ ID NO: 4 and SEQ ID NO: 5) (each 10 pM), 1.5 μl of DMSO, and 0.1 μl of Taq polymerase (5 U/μl).
smiles,measurement,setting,value
"Cc1ccc(S(=O)(=O)N[C@@H](CC(C)C)C(=O)N2CCOCCOCCOCC2)cc1 [C11, 1,4,7-Trioxa-10-azacyclododecane, 10-[4-methyl-2-[[(4-methylphenyl)sulfonyl]amino]-1-oxopentyl]]",lung cancer cell line viability (MTT),[1],"killed by the compound, C11, in a concentration dependent manner"
same,"cytotoxicity on normal cells (cell viability, MTT)",[2],cytotoxicity was not observed
same,effect on the AIMP2-DX2 protein level,[3],reduced the AIMP2-DX2 protein level in a concentration dependent manner
same,effect on the AIMP2 protein expression,[4],no effect
same,effect on the mRNA level of AIMP2-DX2,[5],no effect
